# Test results taken from patent publication US6495559B2, “NPY Y5 receptor antagonists” (Merck & Co., Inc., priority 1998, dated 2002).
# Tested on: bPP-induced food intake
# Experiment: Bovine pancreatic polypeptide (bPP)-induced food intake in Sprague-Dawley rats
# Type: in vivo
# Details: 1, 3, 10 and 30 mg/kg orally, 1 hour prior to ICV bPP, satiated male rats, two hour post-injection food intake
# Method: Male Sprague-Dawley rats aged 7 weeks (Charles River, Japan) were maintained under the controlled temperature (23±3° C.), humidity (55±15%) and light-dark cycle (7:00-19:00 light on). Rats were housed individually with ad libitum access food (CE-2, Clea Japan) and tap water. Rats were anesthetized with sodium pentobarbital (50 mg/kg, i.p., Dainabot, Japan). A permanent stainless steel guide cannula for intracerebroventricular (ICV) injection (21 gauge, 10 mm long) was stereotaxically implanted into the right lateral ventricle. The stereotaxic coordinates used were as follows: 0.9 mm posterior and 1.2 mm lateral to the bregma and 1.5 mm ventral to the brain surface. Animals were allowed at least 6-day recovery postoperatively before the start of feeding experiment. The day before the experiment, they were handled and underwent mock injection, and nocturnal food intake was measured. Rats which ate more than 15 g during the night before the experiment were used for the following experiment. Test compounds were suspended in 0.5% methylcellulose and orally administered by gavage. Administration of test compounds usually began at 10:00. Dosing volume was 5 ml/kg. […] Two hour post-injection food intake was measured for each rat. […]
row,Structure (SMILES),bPP-induced food intake
1,"CS(=O)(=O)N1CC2(CCN(C(=O)Nc3cnc(-c4ccccc4)cn3)CC2)c2ccccc21 [Compound 100, 1 -Methanesulfonyl-N-(5-phenyl-2-pyrazinyl)spiro[indoline-3,4′-piperidine]-1′-carboxamide]",suppressed bPP-induced food intake in a dose-dependent manner

# Same assay, conditions: oral, 1 hour prior to ICV bPP, suppression of bPP-induced food intake
row,Structure (SMILES),minimum effective dose [mg/kg]
1,"CS(=O)(=O)N1CC2(CCN(C(=O)Nc3cnc(-c4ccccc4)cn3)CC2)c2ccccc21 [Compound 100, 1 -Methanesulfonyl-N-(5-phenyl-2-pyrazinyl)spiro[indoline-3,4′-piperidine]-1′-carboxamide]",3

# Tested on: rats
# Experiment: Observation of abnormal behavior after oral dosing in rats
# Type: in vivo
# Details: 100 mg/kg p.o., during 24 hour after dosing
# Method: Compound 100 was orally administered 1 hour prior to the ICV-injection of bPP in satiated male Sprague-Dawley rats. […] Thus, Compound 100 has a potent in vivo Y5 antagonistic activity without causing any abnormal behavior.
row,abnormal behavior,Structure (SMILES)
1,did not cause any abnormal behavior,"CS(=O)(=O)N1CC2(CCN(C(=O)Nc3cnc(-c4ccccc4)cn3)CC2)c2ccccc21 [Compound 100, 1 -Methanesulfonyl-N-(5-phenyl-2-pyrazinyl)spiro[indoline-3,4′-piperidine]-1′-carboxamide]"

# Tested on: mice
# Experiment: Observation of abnormal behavior after oral dosing in mice
# Type: in vivo
# Details: 100 mg/kg p.o., during 24 hour after dosing
row,abnormal behavior,Structure (SMILES)
1,did not cause any abnormal behavior,"CS(=O)(=O)N1CC2(CCN(C(=O)Nc3cnc(-c4ccccc4)cn3)CC2)c2ccccc21 [Compound 100, 1 -Methanesulfonyl-N-(5-phenyl-2-pyrazinyl)spiro[indoline-3,4′-piperidine]-1′-carboxamide]"

# Tested on: not given
# Experiment: not given
# Details: not given
row,Structure (SMILES),melting point [°C]
1,"CS(=O)(=O)N1CC2(CCN(C(=O)Nc3cnc(-c4cccc(F)c4)cn3)CC2)c2ccccc21 [Compound 101, N-[5-(3-fluorophenyl)-2-pyrazinyl]-1-methylsulfonylspiro[indoline-3,4′-piperidine]-1′-carboxamide]",203 to 205
2,"CS(=O)(=O)N1CC2(CCN(C(=O)Nc3ncc(-c4ccccc4)cn3)CC2)c2ccccc21 [Compound 115, 1-methylsulfonyl-N-(5-phenyl-2-pyrimidinyl)spiro[indoline-3,4′-piperidine]-1′-carboxamide]",122 to 123
3,"CS(=O)(=O)N1CC2(CCN(C(=O)Nc3cc4cc(Cl)ccc4[nH]3)CC2)c2ccccc21 [Compound 135, N-(5-chlorobenzoazol-2-yl)-1-methylsulfonylspiro[indoline-3,4′-piperidine]-1′-carboxamide]",172 to 176
4,"COc1ccc2oc(NC(=O)N3CCC4(CC3)CN(S(C)(=O)=O)c3ccccc34)nc2c1 [Compound 134, N-(5-methoxybenzoxazol-2-yl)-1-methylsulfonylspiro[indoline-3,4′-piperidine]-1′-carboxamide]",194 to 196
5,"CS(=O)(=O)N1CC2(CCN(C(=O)Nc3cn(-c4cccc(Cl)c4)cn3)CC2)c2ccccc21 [Compound 127, N-[1-(3-chlorophenyl)imidazol-4-yl]-1-methylsulfonylspiro[indoline-3,4′-piperidine]-1′-carboxamide]",232 to 234
6,CCS(=O)(=O)N1CC2(CCN(C(=O)Nc3cn(-c4ccccc4)cn3)CC2)c2cc(F)ccc21.Cl,140 to 141
7,CS(=O)(=O)N1CC2(CCN(C(=O)Nc3ccc(-c4ccncc4)cc3)CC2)c2ccccc21,272 to 274
8,"CS(=O)(=O)N1CC2(CCN(C(=O)Nc3nc(-c4ccccc4)co3)CC2)c2ccccc21 [Compound 119, 1-methylsulfonyl-N-(4-phenyloxazol-2-yl)spiro[indoline-3,4′-piperidine]-1′-carboxamide]",189 to 192

# More lines, now with the values ahead:
row,melting point [°C],Structure (SMILES)
1,226 to 227,"NS(=O)(=O)N1CC2(CCN(C(=O)Nc3cc(-c4ccccc4)no3)CC2)c2ccccc21 [Compound 402, N-(3-phenylisoxazol-5-yl)-1-sulfamoylspiro[indoline-3,4′-piperidine]-1′-carboxamide]"
2,234 to 237,"CS(=O)(=O)N1CC2(CCN(C(=O)Nc3cnc(-c4ccccc4)cn3)CC2)c2ccc(F)cc21 [Compound 139, 6-fluoro-1-methylsulfonyl-N-(5-phenyl-2-pyrazinyl)spiro[indoline-3,4′-piperidine]-1′-carboxamide]"
3,211 to 212,"CS(=O)(=O)N1CC2(CCN(C(=O)Nc3cc(-c4ccccc4)no3)CC2)c2cccnc21 [Compound 1402, 7-aza-N-(3-phenyl-5-isoxazolyl)-1-methylsulfonylspiro[indoline-3,4′-piperidine]-1′-carboxamide]"
4,193 to 194,"CCS(=O)(=O)N1CC2(CCN(C(=O)Nc3cnc(-c4nncs4)cn3)CC2)c2ccccc21 [Compound 152, 1-ethylsulfonyl-N-[5-(1,3,4-thiadiazol-2-yl)-2-pyrazinyl]spiro[indoline-3,4′-piperidine]-1′-carboxamide]"
5,182 to 183,"Cc1cccc2sc(NC(=O)N3CCC4(CC3)CN(S(C)(=O)=O)c3ccccc34)nc12 [Compound 137, N-(4-methylbenzothiazol-2-yl)-1-methylsulfonylspiro[indoline-3,4′-piperidine]-1′-carboxamide]"
6,267,"CN(C)C(=O)N1CC2(CCN(C(=O)Nc3nnc(-c4ccccc4)s3)CC2)c2ccccc21 [Compound 800, 1-Dimethylcarbamoyl-N-(5-phenyl-1,3,4-thiadiazol-2-yl)spiro[indoline-3,4′-piperidine]-1′-carboxamide]"
7,233 to 236,"CC(=O)c1ccc(NC(=O)N2CCC3(CC2)CN(S(N)(=O)=O)c2ccccc23)cc1 [Compound 300, N-(4-acetylphenyl)-1-sulfamoylspiro[indoline-3,4′-piperidine]-1′-carboxamide]"
